Experimental data as given in US12667584B2, “Adenosine analog and its use in regulating the circadian clock” (NATIONAL INSTITUTE OF BIOLOGICAL SCIENCES, BEIJING, priority 2017, dated 2026).

Key:
C57BL/6j mice = experiment: Wheel running jet-lag experiment, 8 h phase advance or delay; type: in vivo, mouse; settings: for With Pentostadin Cell Assay: Dose effect: 15 mg/kg
Experimental: Wheel running experiment: Male C57Bj/6 mice at 7 w old were purchased from the Nanjing Biomedical Research Institute of Nanjing University introduced from Jackson Laboratory, housed in individually wheel-running cage in a temperature- and humidity-controlled SPF facility, with ad libitum access to food and water. The animals were entrained under 12 h light/dark photoperiod for two weeks to synchronize the endogenous circadian clock of the mice to the ambient light-dark cycle, light intensity is about 50˜100 lux. After synchronization, light-dark cycles were 8-hr phase-advanced or phase-delayed. On the day of light-dark cycle was shifted advance, mice were firstly fasted at CT 3, then 15 mg/kg bw CA03, 15 and 30 mg/kg bw pro-CA03, 15 and 30 mg/kg bw pro-CA04 or DMSO were intraperitoneal injection at CT 12, and light on time (CT 0) was shifted from 7 am to 11 pm), finally re-feed and inject drug again at CT 23 of the old light-dark cycle. CA03 and pro-CA04 were firstly dissolved in DMSO to the concentration of 200 μg/μl, then dilute with saline to the final concentration of 1000 μg/ml for intraperitoneal injection. Pro-03 was firstly dissolved in DMSO to the concentration of 200 μg/μl, then dilute with 2% tween80 (in sterilized water) to the final concentration of 1000 μg/ml for intraperitoneal injection. On the day of light-dark cycle was shifted delayed, mice were firstly fasted at ZT 3, then 15 mg/kg bw CA03, 15 and 30 mg/kg bw pro-CA03, 15 and 30 mg/kg bw pro-CA04 or DMSO were intraperitoneal injection at CT 12, and light off time (CT12) was shifted from […] to 3 am), finally re-feed and inject drug again at CT 23 of the old light-dark cycle. Locomotor activity was recorded in 10-min bins wheel running (Actimetrics), and the data obtained were analysed with Clocklab software (Actimetrics). All animal experimental procedures were performed in accordance with the protocol approved by the Institutional Animal Care and Usage Committee (IACUC) of the National Institute of Biological Sciences, Beijing.
Under a standard jet-lag protocol {Yamaguchi, 2013}, wild-type C57BL/6j mice usually take ˜10 d to adapt to 8 h phase advance. […] Similarly, the drug treated mice adapt faster to the phase delay (FIG. 2D&2E).
To test whether cordycepin function in vivo, we firstly tested luciferase signal level by live imaging of Per2:LUC mice after intraperitoneal injection of 15 mg/kg cordycepin or DMSO. We found cordycepin induce more than 4 folds increase of luciferase signal in liver when compared with DMSO control (A). […] We also reconfirmed endogenous transcription rate of core clock genes by measuring the pre-mRNA with qPCR in the liver (B). We examined RRE genes (including Bmal1, Clock, Npas2, Cry1 and Nfil3), internal control genes (including Gapdh, Tbp and Actin) and E-box genes (including Per1, Per2, Dbp and Nr1d1). We designed at least 2 primers for each gene. […] Prior evaluation the jet-leg cure ability of cordycepin, we detected whether cordycepin and it's prodrug pro-CA03 can penetrate BBB. We injected cordycepin or pro-CA03 via tail vein and time course sampled CSF and analyzed cordycepin pro-CA03 level with HPLC-MASS method. […] Finally we evaluated the jet-leg cure ability of cordycepin, pro-CA03 and Pro-CA04 with mice behavioral experiment. Wild-type C57BL/6j mice typically take ˜10 days to adapt to an 8 h phase advance. […]

Per2:luc U2OS cells = experiment: Real-time monitoring of circadian oscillation in lumicycle, Per2:luc U2OS cells; type: cell-based, human; settings: for effect on the clock phase: in words
Experimental: Cell culture, drug treatment and Real-Time Monitoring of Circadian Oscillations: Per2-Luc reporter U2OS cells (D15) and Bmal1-Luc reporter U2OS cells (C26) cells were kept in DMEM medium (Gibco), supplemented with 10% FBS (Gibco) and 1% penicillin streptomycin mixture (Gibco). For Circadian Oscillation monitored with lumicycle (Actimetrics), cells were seeded at the density of 10^6 per 3.5 cm dish (Z688851-30EA). The medium was changed into XM medium (PH7.2, 10 mM HEPES, 350 mg/I bicarbonate, 1×B27, 100 IU/ml penicillin, 100 μg/ml streptomycin, 10 μg/ml gentamycin, and 100 μM d-Luciferin) 2 days after cell seeding. 3.5 cm dish was then sealed with high-vacuum grease (Dow Corning) and microscope cover glass, and transferred into lumicycle which was placed in an incubator (37° C.). For Drug treatment, 3.5 cm dish was taken out from lumicycle quickly at indicated time. After chemical was added into the medium, the dish was sealed again and put back into lumicycle. For Circadian Oscillation monitored with Tecan (Perkinelmer), cells were seeded at the density of […] per well for 384-well plate (CLS3610-48EA). 2 days later, the medium was changed into premixed XM medium with different chemicals with or without pentostatin (5 μg/ml). The plate was then sealing with sealing film (Sangon Biotech) and put into Tecan. Data from cells were collected in the Tecan luminometer at 37° C. for 5˜7 days.
The inventors conducted a chemical screen using the human osteosarcoma U2OS cell line so as to discover small molecules that modify the phase of the intracellular clock in mammals. In the primary screen, the inventors used two reporter lines of U2OS harboring a luciferase gene under control of either Per2 or Bmal1 promoter (named Per2-dLuc or Bmal1-dLuc cells), and set the threshold for at least 6 h phase-changes with no apparent amplitude-reduction in both cell lines. […] An institutional pilot chemical library consisting of approximately 10,000 small molecules was applied in this study. […] The inventors set to allow a free-run of the clock before administration of the compound over the course in order to eliminate the possibility that this phase-changing phenomenon was due to a combinative phenotype of medium-change plus the compound effect.
Circadian clock is a transcriptional based feedback loop, however different clock genes contain different cis-element and may show different response to the same stimulation. […] Since the close similar structure with adenosine and potential function of inhibiting transcription by preventing mRNA elongation, we tested whether adenosine and other deoxynucleoside could shift circadian phase. […] Therefore we further tested whether cordycepin utilize adenosine transporter to enter cell or utilize adenosine deaminase to degrade.
One prominent character of zeitgeiber is phase dependent function. Therefore, we further tested whether cordycepin also has the character.

[1] = tested on: Per2-Luc reporter U2OS cells (D15); experiment: Circadian phase shift cell assay in D15 cells, 384 well plate, Tecan, with or without pentostatin; type: cell-based, human; settings: for minimal effective concentration: Homo sapiens, U2OS, without pentostatin, read-out: Cell Assay; for minimal effective concentration / With Pentostadin Cell Assay: concentration that shifts the circadian phase; for With Pentostadin Cell Assay: pentostatin 5 μg/ml

CCCCCCCC(=O)Nc1ncnc2c1ncn2[C@@H]1O[C@H](CO)[C@H](O)[C@H]1O [Pro-CA04, N-octanoyl-9-(P-D-xylofuranosyl)-adenine]
adaption time after 8 phase advance (C57BL/6j mice; DMSO 10 days): ~5 days

Nc1ncnc2c1ncn2[C@@H]1O[C@H](CO)[C@H](O)[C@H]1O [(3′R)-adenosine, 3′-(R)-adenosine]
effect on the clock phase (Per2:luc U2OS cells): can shift circadian phase

CCCCCCCC(=O)Nc1ncnc2c1ncn2[C@@H]1O[C@H](CO)[C@H](O)[C@H]1O [drawing 329]
With Pentostadin Cell Assay: Dose effect (C57BL/6j mice): Dose effect (15 mg/kg)

Nc1ncnc2c1ncn2[C@@H]1O[C@H](CO)[C@@H](O)[C@H]1O [adenosine]
effect on phase effect induced by cordycepin (Per2:luc U2OS cells; excessive amount): inhibits the phase effect induced by cordycepin | effect on the clock phase (Per2:luc U2OS cells): not

CCCCCCCC(=O)Nc1ncnc2c1ncn2[C@@H]1O[C@H](CO)C[C@H]1O
With Pentostadin Cell Assay: Dose effect (C57BL/6j mice): Dose effect (15 mg/kg)

Nc1ncnc2c1ccn2[C@@H]1O[C@H](CO)[C@@H](O)[C@H]1O [7-deazaadenosine, tubercidin]
effect on the clock phase (Per2:luc U2OS cells): can shift circadian phase

Nc1ncnc2c1c(Br)cn2[C@H]1O[C@H](CO)[C@H](O)[C@H]1O
minimal effective concentration [1]: > 500 µM | With Pentostadin Cell Assay [1]: 50 µM

Nc1ncnc2c1ncn2[C@@H]1O[C@H]([C@H](O)CO)[C@H](O)[C@H]1O
minimal effective concentration [1]: > 500 µM | With Pentostadin Cell Assay [1]: 200 µM

Nc1ncnc2c1nc(Br)n2[C@@H]1O[C@H](CO)[C@H](O)[C@H]1O
minimal effective concentration [1]: > 500 µM | With Pentostadin Cell Assay [1]: 100 µM

Nc1nc(NC2CC2)c2ncn([C@H]3C=C[C@@H](CO)O3)c2n1
minimal effective concentration [1]: 400 µM

Nc1ncnc2c1ncn2[C@@H]1O[C@H](COC(=O)CCCC[C@@H]2SC[C@@H]3NC(=O)N[C@@H]32)C(O)C1O (stereo partly shown)
minimal effective concentration [1]: > 500 µM | With Pentostadin Cell Assay [1]: 2 µM

Nc1ncnc2c1c(Br)c(Br)n2[C@@H]1O[C@H](CO)C[C@H]1O
minimal effective concentration [1]: > 500 µM | With Pentostadin Cell Assay [1]: 100 µM

[N-]=[N+]=NC[C@@H]1CC(O)[C@H](n2cnc3c(N)ncnc32)O1 (stereo partly shown)
minimal effective concentration [1]: 500 µM | With Pentostadin Cell Assay [1]: 25 µM

Nc1cc(Cl)nc2c1ncn2[C@@H]1O[C@H](CO)C(O)C1O (stereo partly shown)
minimal effective concentration [1]: > 500 µM | With Pentostadin Cell Assay [1]: 100 µM

C=C[C@@H]1CC(O)[C@H](n2cnc3c(N)ncnc32)O1 (stereo partly shown)
minimal effective concentration [1]: 200 µM | With Pentostadin Cell Assay [1]: 25 µM

Nc1ncnc2c1ncn2[C@@H]1O[C@H](CO)[C@H](OC(=O)CCCC[C@@H]2SC[C@@H]3NC(=O)N[C@@H]32)[C@H]1O
minimal effective concentration [1]: > 500 µM | With Pentostadin Cell Assay [1]: 25 µM

[2H]c1nc(N)c2nc([2H])n([C@@H]3O[C@H](CO)[C@H](O)[C@H]3O)c2n1 [drawing 353]
minimal effective concentration [1]: 12.5 µM | With Pentostadin Cell Assay [1]: 25 µM

Nc1ncnc2c1ncn2[C@@H]1O[C@H](CO)C(O)C1O (stereo partly shown)
minimal effective concentration [1]: 12.5 µM | With Pentostadin Cell Assay [1]: 0.5 µM

Nc1nc(N)c2ncn([C@@H]3O[C@H](CO)C(O)C3O)c2n1 (stereo partly shown)
minimal effective concentration [1]: > 500 µM | With Pentostadin Cell Assay [1]: 100 µM

OC[C@@H]1CC(O)[C@H](n2cnc3cc(Cl)c(Cl)cc32)O1 (stereo partly shown)
minimal effective concentration [1]: 10 µM

CC1(CCC(=O)O[C@@H]2[C@H](O)[C@@H](COC(=O)CCCC(=O)NCCCOCCOCCOCCCNC(=O)CCCC[C@H]3SC[C@H]4NC(=O)N[C@H]43)O[C@H]2n2cnc3c(N)ncnc32)N=N1
minimal effective concentration [1]: > 500 µM | With Pentostadin Cell Assay [1]: 100 µM

Nc1ncnc2c1ncn2[C@@H]1O[C@H](COC(=O)CCCC[C@@H]2SC[C@@H]3NC(=O)N[C@@H]32)CC1OC(=O)CCCC[C@@H]1SC[C@@H]2NC(=O)N[C@@H]21 (stereo partly shown)
minimal effective concentration [1]: > 500 µM | With Pentostadin Cell Assay [1]: 12.5 µM

OC[C@H]1O[C@@H](n2cnc3c2NC=NC[C@H]3O)C[C@@H]1O [pentostatin]
effect on the clock phase (Per2:luc U2OS cells): does not affect the clock phase | effect on the clock phase (Per2:luc U2OS cells; listed as Pentostatin): does not affect the clock at all

Nc1ncnc2c1c(F)c(Br)n2[C@@H]1O[C@H](CO)[C@H](O)[C@H]1O
minimal effective concentration [1]: > 500 µM | With Pentostadin Cell Assay [1]: 100 µM

COc1nc(N)c2ncn([C@@H]3O[C@H](CO)C(O)C3O)c2n1 (stereo partly shown)
minimal effective concentration [1]: > 500 µM | With Pentostadin Cell Assay [1]: 100 µM

Nc1ncnc2c1ncn2[C@@H]1O[C@@H]2COC2[C@H]1O (stereo partly shown)
minimal effective concentration [1]: > 500 µM | With Pentostadin Cell Assay [1]: 100 µM

[2H]c1nc(N)c2nc([2H])n([C@@H]3O[C@H](CO)C[C@H]3O)c2n1
minimal effective concentration [1]: 25 µM | With Pentostadin Cell Assay [1]: 12.5 µM

C#CC(O)C1O[C@@H](n2cnc3c(N)ncnc32)[C@H](O)[C@H]1O (stereo partly shown)
minimal effective concentration [1]: > 500 µM | With Pentostadin Cell Assay [1]: 100 µM

CCCCCCCC(=O)Nc1ncnc2c1ncn2[C@@H]1O[C@H](CO)[C@H](O)[C@H]1O [NQZ-163]
amplitude effect, Per2:luc signal versus control ([1]; under the concentration of 100 μM): more than two fold of control

Nc1nccc2c1ncn2[C@@H]1O[C@H](CO)[C@@H](O)[C@H]1O [3-deazaadenosine, 3-Deazaadenosine]
effect on the clock phase (Per2:luc U2OS cells): can shift circadian phase

Nc1ncnc2c1c(F)cn2[C@H]1O[C@H](CO)[C@H](O)[C@H]1O
minimal effective concentration [1]: > 500 µM | With Pentostadin Cell Assay [1]: 100 µM

Nc1ncnc2c1cc(Br)n2[C@@H]1O[C@H](CO)C[C@H]1O
minimal effective concentration [1]: > 500 µM | With Pentostadin Cell Assay [1]: 100 µM
